Data published in paper PMC6515931, “The Efflux Mechanism of Fraxetin-O-Glucuronides in UGT1A9-Transfected HeLa Cells: Identification of Multidrug Resistance-Associated Proteins 3 and 4 (MRP3/4) as the Important Contributors” (Frontiers in Pharmacology, 2019).
Where “and” joins values, the source holds several entries; their conditions need not be identical. Identical values can stand only once. Like-named read-outs stand apart in the source and are kept apart here.

Tests used:
BCRP [1] = biological target: T1, BCRP (Homo sapiens, UniProt Q9UNQ0); experiment: shRNA-mediated partial silencing of BCRP in HeLa1A9 cells, glucuronide excretion; type: cell-based; conditions: fraxetin 10 μM
T1 construct: BCRP, MRP1, MRP3, and MRP4 were detected in both wild-type HeLa and HeLa1A9 cells; endogenous in cells; host or cells: HeLa1A9 cells
T1 sequence (Q9UNQ0 1-655): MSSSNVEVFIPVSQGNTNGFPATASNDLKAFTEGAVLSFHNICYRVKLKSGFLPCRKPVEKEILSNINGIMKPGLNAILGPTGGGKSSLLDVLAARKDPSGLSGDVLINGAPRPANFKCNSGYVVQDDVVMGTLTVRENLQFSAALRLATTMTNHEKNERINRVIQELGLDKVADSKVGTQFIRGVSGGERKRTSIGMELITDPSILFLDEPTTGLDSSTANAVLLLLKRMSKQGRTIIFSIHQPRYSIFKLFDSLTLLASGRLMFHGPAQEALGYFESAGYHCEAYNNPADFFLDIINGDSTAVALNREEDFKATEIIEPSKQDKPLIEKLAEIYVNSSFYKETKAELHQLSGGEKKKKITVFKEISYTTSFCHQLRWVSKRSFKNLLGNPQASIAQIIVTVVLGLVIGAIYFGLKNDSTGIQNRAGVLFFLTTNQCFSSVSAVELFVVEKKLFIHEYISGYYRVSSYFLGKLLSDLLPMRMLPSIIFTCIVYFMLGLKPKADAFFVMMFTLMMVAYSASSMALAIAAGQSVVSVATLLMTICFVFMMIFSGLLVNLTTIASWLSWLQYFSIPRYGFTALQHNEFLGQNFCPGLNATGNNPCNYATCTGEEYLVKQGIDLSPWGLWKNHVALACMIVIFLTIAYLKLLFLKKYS
Description: (§1) The HeLa1A9 cells were pretreated and incubated with fraxetin solutions as reported previously ([Jiang et al., 2011]). Before assays, the HeLa1A9 cells were washed twice with prewarmed (37°C) Hank’s balanced salt solution (HBSS; pH = 7.4). After that, fraxetin (10 μM) dissolved in 2 mL of HBSS was incubated with the HeLa1A9 cells. At each time point (30, 60, 90, and 120 min), 200 μL of the culture supernatant from each well was collected as samples, and an equal volume of a loading media was used to replenish each well. Next, the collected samples were each mixed with 100 μL ice-cold acetonitrile. The supernatants were subjected to UHPLC analysis after centrifugation (10 min at 13800 × g).
(§2) In glucuronide excretion assays, biological inhibition mainly including shRNA-mediated partial silencing of BCRP and MRPs in HeLa cells was usually performed to evaluate the role of each efflux transporter ([Quan et al., 2015]; [Sun et al., 2015]; [Qin et al., 2018a]). Established shRNA_BCRP, shRNA_MRP1, shRNA_MRP3, and shRNA_MRP4 plasmids were transiently transfected into HeLa1A9 cells to develop the stably shRNA-transfected cell lines, named HeLa1A9-BCRP-shRNA cells, HeLa1A9-MRP1-shRNA, HeLa1A9-MRP3-shRNA, and HeLa1A9-MRP4-shRNA cells, respectively. […]
(§3) In addition, the excretion rate of intracellular glucuronides was calculated using Equ. […]

MRP1 = biological target: T2, MRP1 (Homo sapiens, UniProt P33527); experiment: shRNA-mediated partial silencing of MRP1 in HeLa1A9 cells, glucuronide excretion; type: cell-based; conditions: fraxetin 10 μM
T2 construct: BCRP, MRP1, MRP3, and MRP4 were detected in both wild-type HeLa and HeLa1A9 cells; endogenous in cells
T2 sequence (P33527 whole entry): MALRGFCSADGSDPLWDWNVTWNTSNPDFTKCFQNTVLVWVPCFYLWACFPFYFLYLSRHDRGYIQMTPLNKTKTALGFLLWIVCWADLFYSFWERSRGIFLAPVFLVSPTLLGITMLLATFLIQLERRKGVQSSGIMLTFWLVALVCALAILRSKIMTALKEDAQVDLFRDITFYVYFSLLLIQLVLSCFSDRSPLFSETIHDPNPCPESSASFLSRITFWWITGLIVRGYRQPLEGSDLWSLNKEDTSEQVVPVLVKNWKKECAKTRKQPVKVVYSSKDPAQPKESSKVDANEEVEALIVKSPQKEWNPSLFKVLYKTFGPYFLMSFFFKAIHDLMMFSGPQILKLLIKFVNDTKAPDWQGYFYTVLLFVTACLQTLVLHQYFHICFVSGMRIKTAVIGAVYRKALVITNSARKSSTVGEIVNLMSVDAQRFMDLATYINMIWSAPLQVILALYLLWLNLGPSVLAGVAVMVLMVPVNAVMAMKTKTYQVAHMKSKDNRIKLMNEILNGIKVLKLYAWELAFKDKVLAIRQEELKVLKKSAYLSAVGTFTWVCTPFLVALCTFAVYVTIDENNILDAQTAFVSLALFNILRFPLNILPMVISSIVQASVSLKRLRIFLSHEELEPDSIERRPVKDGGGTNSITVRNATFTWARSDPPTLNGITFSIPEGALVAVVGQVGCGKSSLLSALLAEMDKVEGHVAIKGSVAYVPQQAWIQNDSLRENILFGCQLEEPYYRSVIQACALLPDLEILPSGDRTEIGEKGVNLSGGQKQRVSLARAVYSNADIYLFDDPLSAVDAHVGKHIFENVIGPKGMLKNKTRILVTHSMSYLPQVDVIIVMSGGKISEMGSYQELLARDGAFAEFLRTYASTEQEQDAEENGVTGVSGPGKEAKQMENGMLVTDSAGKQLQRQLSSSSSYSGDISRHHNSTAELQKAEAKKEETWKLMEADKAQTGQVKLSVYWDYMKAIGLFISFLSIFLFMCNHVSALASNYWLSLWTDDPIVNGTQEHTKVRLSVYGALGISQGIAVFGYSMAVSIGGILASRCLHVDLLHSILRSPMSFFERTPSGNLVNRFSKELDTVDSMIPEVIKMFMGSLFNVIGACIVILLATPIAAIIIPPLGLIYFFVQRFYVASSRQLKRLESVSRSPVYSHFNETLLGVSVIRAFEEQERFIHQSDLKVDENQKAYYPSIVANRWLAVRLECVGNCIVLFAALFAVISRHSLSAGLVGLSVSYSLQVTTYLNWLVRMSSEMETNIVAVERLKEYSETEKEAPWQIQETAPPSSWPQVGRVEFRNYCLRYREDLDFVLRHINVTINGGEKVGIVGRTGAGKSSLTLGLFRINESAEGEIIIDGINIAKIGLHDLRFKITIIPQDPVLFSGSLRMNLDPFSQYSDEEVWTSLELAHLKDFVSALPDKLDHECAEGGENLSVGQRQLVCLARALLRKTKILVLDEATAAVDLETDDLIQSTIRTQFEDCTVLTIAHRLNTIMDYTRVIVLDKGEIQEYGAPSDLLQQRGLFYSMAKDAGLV
Description: as §1, §2, §3

HeLa1A9 cells = experiment: Toxicity toward HeLa1A9 cells during excretion experiments; type: cell-based, human; conditions: within the experimental concentration range
cystathionine β-synthase = tested on: cystathionine β-synthase; set-up: method as in Thorson et al., 2013; conditions: cystathionine β-synthase inhibitor; ref Thorson et al., 2013; cited from earlier work
α-glucosidase = biological target: α-glucosidase; set-up: method as in Milella et al., 2016; conditions: versus acarbose, a well-known α-glucosidase inhibitor; ref Milella et al., 2016; cited from earlier work
[2] = set-up: method as in Wang H. et al., 2016; conditions: rats; after oral administration of fraxin 50 mg/kg; ref Wang H. et al., 2016; cited from earlier work
[3] = tested on: UDP-glucuronosyltransferase 1A9 (UGT1A9); set-up: method as in Xia et al., 2014; conditions: ref Xia et al., 2014, cited from earlier work
BCRP [4] = tested on: BCRP; set-up: method as in Sjöstedt et al., 2016; conditions: ref Sjöstedt et al., 2016; cited from earlier work
MRP2 = tested on: MRP2; set-up: method as in Sjöstedt et al., 2016; conditions: ref Sjöstedt et al., 2016; cited from earlier work
HeLa1A9 cell lysate = biological target: T3, HeLa1A9 cell lysate (Homo sapiens, UniProt O60656); experiment: Glucuronidation kinetics by HeLa1A9 cell lysate; type: in vitro ADME; conditions: metabolite propofol-G
T3 sequence (O60656 26-530): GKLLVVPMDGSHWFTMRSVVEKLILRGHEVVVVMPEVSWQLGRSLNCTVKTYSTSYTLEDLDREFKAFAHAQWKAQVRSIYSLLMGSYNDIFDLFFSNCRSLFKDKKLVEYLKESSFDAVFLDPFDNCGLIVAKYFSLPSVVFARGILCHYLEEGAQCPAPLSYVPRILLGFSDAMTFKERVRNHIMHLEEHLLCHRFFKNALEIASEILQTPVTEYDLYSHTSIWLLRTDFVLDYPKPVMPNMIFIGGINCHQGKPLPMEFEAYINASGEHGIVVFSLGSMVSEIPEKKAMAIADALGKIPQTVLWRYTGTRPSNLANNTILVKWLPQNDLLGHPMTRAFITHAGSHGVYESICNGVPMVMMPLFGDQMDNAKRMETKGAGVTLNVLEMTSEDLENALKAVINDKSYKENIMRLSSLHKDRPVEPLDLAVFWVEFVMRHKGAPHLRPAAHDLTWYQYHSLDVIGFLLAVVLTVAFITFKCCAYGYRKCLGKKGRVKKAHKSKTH
Description: The incubation system was slightly modified on the basis of a previously published article ([Qin et al., 2018a]). […] After preincubation at 37°C for 5 min, UDPGA (3.5 mM) was added to the reaction system, and the mixture was incubated for another 30 min. These reactions were terminated by the addition of an equal volume of ice-cold acetonitrile. The mixed samples were centrifuged at 13800 × g for 10 min, and the supernatant was analyzed by ultra-high-performance liquid chromatography (UHPLC). All the experiments were conducted in triplicate.
The enzyme kinetic parameters were obtained by fitting appropriate kinetic models to the experimental data in GraphPad Prism V5 software (San Diego, CA, United States). The best model was selected based on visual inspection of the Eadie–Hofstee plots ([Qin et al., 2018b]). In brief, if the Eadie–Hofstee plot was linear, formation rates (V) of glucuronides at different substrate concentrations (C) were fitted to the standard equations (1): […]
Where Km is the Michaelis–Menten constant, and Vmax is the maximum rate of glucuronidation. The intrinsic clearance (CLint) was computed as Vmax/Km.

SMILES	changes in excretion rates, intracellular glucuronides and fmet values (BCRP [1])	changes in excretion rates, intracellular glucuronides and fmet values (MRP1)	toxicity toward HeLa1A9 cells (HeLa1A9 cells)	IC50 (cystathionine β-synthase)	half-maximal inhibitory concentration (IC50) compared with acarbose (α-glucosidase)	half-life [2]	maximal plasma concentration [2]	CLint ([3]; formation of fraxetin-7-O-glucuronide by UGT1A9)	CLint ([3]; formation of fraxetin-8-O-glucuronide by UGT1A9)	inhibitory action on transporter (BCRP [4])	inhibitory action on transporter (MRP2)	Vmax (HeLa1A9 cell lysate)
COc1cc2ccc(=O)oc2c(O)c1O [fraxetin]	did not cause any changes	did not cause any changes	no significant toxicity	134 µM	significantly lower	11 h	2250 ng/mL and ~11 μM	42 μL/min per milligram of protein	300 μL/min per milligram of protein	absence of an inhibitory action	absence of an inhibitory action	–
CC(C)c1cccc(C(C)C)c1O [propofol]	–	–	–	–	–	–	–	–	–	–	–	3.2 ± 0.2 (^aaa) pmol/min/mg
